{"source": "patent US9700046B2", "about": "“Herbicidal agents containing aclonifen” (BAYER CROPSCIENCE AG, priority 2012, dated 2017)", "key": {"[1]": {"test_system": "Lolium spp. resistant to HRAC group B", "experiment": "Greenhouse experiment, post-emergence treatment of resistant ryegrass biotypes (HRAC group B resistant)", "type": "in vivo", "conditions": "post-emergence (PO, BBCH 11), about 3 weeks after application, dose g of AS/ha: aclonifen 225, pendimethalin 300, diflufenican 30, mixture 225 + 300 + 30, mesosulfuron + iodosulfuron + mefenpyr 15 + 3 + 45", "method": "(§1) In the standard design of the test, seeds of various broad-leaved weed and weed grass biotypes (origins) were sown in a 8-13 cm diameter pot filled with natural soil of a standard field soil (loamy silt; non-sterile) and covered with a covering soil layer of about 1 cm. The pots were then cultivated in a greenhouse (12-16 h light, temperature day 20-22° C., night 15-18° C.) until the time of application. The pots were treated on a laboratory track sprayer with spray liquors comprising the compositions according to the invention, mixtures of the prior art or components used individually. Application of the active compounds or active compound combinations formulated as WG, WP, EC or otherwise was carried out at the appropriate growth stages of the plants. The amount of water used for spray application was 100-600 l/ha. After the treatment, the plants were returned to the greenhouses.\n(§2) About 3 weeks after the application, the soil action or/and foliar action was assessed visually according to a scale of 0-100% in comparison to an untreated comparative group: 0%=no noticable effect compared to the untreated comparative group; 100%=full effect compared to the untreated comparative group.\n(§3) 2. Post-emergence action against weeds: seeds of various broad-leaved weed and weed grass biotypes (origins) were sown in a 8-13 cm diameter pot filled with natural soil of a standard field soil (loamy silt; non-sterile) and covered with a covering soil layer of about 1 cm. […]\n(§4) Insofar as herbicidal effects of the compositions according to the invention compared to mixtures of the prior art or compared to components applied individually against economically important mono- and dicotyledonous harmful plants were the center of attention, the synergistic herbicidal activities were calculated using Colby's formula (cf. S. R. Colby; Weeds 15 (1967), 20-22): E^C=(A+B+C)−(A×B+A×C+B×C)/100+(A×B×C)/10000 where: […]\n(§5) Δ=difference (%) of the measured value (%) to the expected value (%) (measured value minus expected value). […]"}, "[2]": {"test_system": "Lolium spp. resistant to HRAC group A", "experiment": "Greenhouse experiment, post-emergence treatment of resistant ryegrass biotypes (HRAC group A resistant)", "type": "in vivo", "conditions": "post-emergence (PO, BBCH 11), about 3 weeks after application, dose g of AS/ha: aclonifen 225, pendimethalin 300, diflufenican 30, mixture 225 + 300 + 30, pinoxaden + cloquintocet-mexyl 60 + 15", "method": "as §1, §2, §3, §4, §5"}}, "data": [{"molecule": "Nc1c([N+](=O)[O-])ccc(Oc2ccccc2)c1Cl", "note": "[(A) aclonifen, 2-chloro-6-nitro-3-phenoxybenzenamine]", "values": [{"measurement": "herbicidal effect (visual assessment, scale 0-100% vs untreated), measured value", "setting": "[1]", "value": 50, "unit": "%"}, {"measurement": "herbicidal effect (visual assessment, scale 0-100% vs untreated), measured value", "setting": "[2]", "value": 25, "unit": "%"}]}, {"molecule": "CCC(CC)Nc1c([N+](=O)[O-])cc(C)c(C)c1[N+](=O)[O-]", "note": "[(B) pendimethalin, N-(1-ethylpropyl)-3,4-dimethyl-2,6-dinitrobenzenamine]", "values": [{"measurement": "herbicidal effect (visual assessment, scale 0-100% vs untreated), measured value", "setting": "[1]", "value": 0, "unit": "%"}, {"measurement": "herbicidal effect (visual assessment, scale 0-100% vs untreated), measured value", "setting": "[2]", "value": 5, "unit": "%"}]}, {"molecule": "O=C(Nc1ccc(F)cc1F)c1cccnc1Oc1cccc(C(F)(F)F)c1", "note": "[(C) diflufenican, N-(2,4-difluorophenyl)-2-[3-(trifluoromethyl)phenoxy]-3-pyridinecarboxamide]", "values": [{"measurement": "herbicidal effect (visual assessment, scale 0-100% vs untreated), measured value", "setting": "[1]", "value": 5, "unit": "%"}, {"measurement": "herbicidal effect (visual assessment, scale 0-100% vs untreated), measured value", "setting": "[2]", "value": 10, "unit": "%"}]}]}
